For data set [1], the target named is T1, Steroid 21-hydroxylase (Homo sapiens, UniProt P08686).
T1 sequence (P08686 whole entry): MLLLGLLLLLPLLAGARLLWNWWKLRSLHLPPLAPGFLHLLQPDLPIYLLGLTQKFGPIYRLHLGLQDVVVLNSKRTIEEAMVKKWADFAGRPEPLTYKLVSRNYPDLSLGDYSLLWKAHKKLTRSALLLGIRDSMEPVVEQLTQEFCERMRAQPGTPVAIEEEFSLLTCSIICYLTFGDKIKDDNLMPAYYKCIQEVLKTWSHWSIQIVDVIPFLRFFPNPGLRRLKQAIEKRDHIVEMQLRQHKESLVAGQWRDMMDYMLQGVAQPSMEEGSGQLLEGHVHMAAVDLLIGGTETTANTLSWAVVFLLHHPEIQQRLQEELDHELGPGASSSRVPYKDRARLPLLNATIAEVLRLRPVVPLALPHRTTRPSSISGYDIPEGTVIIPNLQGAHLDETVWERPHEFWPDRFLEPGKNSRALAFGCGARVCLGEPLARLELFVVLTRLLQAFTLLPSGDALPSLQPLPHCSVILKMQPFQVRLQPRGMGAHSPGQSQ
In words: Inhibition of recombinant CYP21 (unknown origin) expressed in human AD293 cells using 17alpha-hydroxyprogesterone as substrate pretreated for 60 mins followed by substrate addition and measured after 45 mins by LC/MS analysis. The class given is cell-based.

The target in data set [2] is T2, Steroid 17-alpha-hydroxylase/17,20 lyase (Homo sapiens, UniProt P05093).
T2 sequence (P05093 whole entry): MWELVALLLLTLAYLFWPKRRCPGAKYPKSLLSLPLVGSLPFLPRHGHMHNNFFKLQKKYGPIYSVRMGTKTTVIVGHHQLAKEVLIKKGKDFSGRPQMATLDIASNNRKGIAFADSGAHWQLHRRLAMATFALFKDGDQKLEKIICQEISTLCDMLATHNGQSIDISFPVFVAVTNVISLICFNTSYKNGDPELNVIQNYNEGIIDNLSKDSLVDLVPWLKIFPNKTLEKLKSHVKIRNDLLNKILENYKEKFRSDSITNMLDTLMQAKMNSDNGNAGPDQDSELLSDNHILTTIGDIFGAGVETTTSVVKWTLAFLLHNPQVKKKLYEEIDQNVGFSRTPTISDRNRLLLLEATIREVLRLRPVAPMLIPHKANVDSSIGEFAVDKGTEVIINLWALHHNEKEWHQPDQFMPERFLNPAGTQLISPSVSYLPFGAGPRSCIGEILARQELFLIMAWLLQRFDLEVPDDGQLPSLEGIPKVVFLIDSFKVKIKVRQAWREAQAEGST
The data set is described as follows: Inhibition of recombinant CYP17 (unknown origin) expressed in human AD293 cells using 21[3H]-17alpha-hydroxyl-pregnenolone as substrate pretreated for 60 mins followed by substrate addition and measured after 4 hrs by Topcount method. The class given is cell-based.

Data set [3] deals with T3, Cytochrome P450 11B1, mitochondrial (Homo sapiens, UniProt P15538).
T3 sequence (P15538 whole entry): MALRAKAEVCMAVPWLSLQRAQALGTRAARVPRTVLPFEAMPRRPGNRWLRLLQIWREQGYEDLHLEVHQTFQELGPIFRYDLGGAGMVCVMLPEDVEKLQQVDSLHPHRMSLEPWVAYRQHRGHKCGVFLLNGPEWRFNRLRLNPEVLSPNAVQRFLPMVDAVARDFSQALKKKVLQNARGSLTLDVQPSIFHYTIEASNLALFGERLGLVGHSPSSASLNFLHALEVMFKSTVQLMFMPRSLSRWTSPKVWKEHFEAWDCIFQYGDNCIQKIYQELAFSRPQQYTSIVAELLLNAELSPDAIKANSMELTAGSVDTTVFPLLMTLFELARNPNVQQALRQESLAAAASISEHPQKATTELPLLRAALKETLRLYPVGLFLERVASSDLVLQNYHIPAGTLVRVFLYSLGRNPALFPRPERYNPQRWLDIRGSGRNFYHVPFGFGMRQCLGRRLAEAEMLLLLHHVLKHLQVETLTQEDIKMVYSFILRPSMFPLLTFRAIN
In words: Inhibition of recombinant CYP11B1 (unknown origin) expressed in human AD293 cells using 11-deoxycortisol as substrate pretreated for 60 mins followed by substrate addition and measured after 12 hrs by LC/MS analysis. The class given is cell-based.

A short description of data set [4]: Oral bioavailability in guinea pig at 10 mg/kg. Type of data set: ADME, organism-based, Cavia porcellus. As to conditions: in vivo.
The nature of data set [5]: Tmax in guinea pig at 10 mg/kg, po. Type of data set: ADME, organism-based, Cavia porcellus. To be noted: in vivo.

The structures appear in SMILES notation.

As to `N=C(N)N1CCN(c2ccc(/C=C/c3cc(F)cc(Cn4ccnc4)c3)cc2)CC1`, the results for the half-inhibitory concentration (IC50) in data set [1], in data set [2] and in data set [3] were at least 10000 nM, 1200 nM and 1400 nM, respectively.
Turning to `N=C(N)N1CCN(c2ccc(/C=C/c3cc(Cl)cc(-c4ccncc4)c3)cc2)CC1`, the IC50 in data set [1] was at least 10000 nM; in data set [3], 10000 nM.
Regarding `O=C(c1cccc([N+](=O)[O-])c1)N1CCN(c2ccc(/C=C/c3cc(Cl)cc(Cn4ccnc4)c3)cc2)CC1`, the IC50 in data set [1] is at least 10000 nM; in data set [2], 17 nM; in data set [3], 4 nM.
`CC(C)S(=O)(=O)N1CCN(c2ccc(/C=C/c3cc(F)cc(Cn4ccnc4)c3)cc2)CC1`: the results for the IC50 in data set [1], in data set [2] and in data set [3] were 700 nM, 39 nM and 5 nM, respectively.
As to `N#Cc1cccc(S(=O)(=O)N2CCN(c3ccc(/C=C/c4cc(Cl)cc(Cn5ccnc5)c4)cc3)CC2)c1`, the IC50 was 1200 nM in data set [1], 21 nM in data set [2] and 4 nM in data set [3].
For `Clc1cc(/C=C/c2ccc(N3CCN(C4=NCCO4)CC3)cc2)cc(-c2ccncc2)c1`, the values for the IC50 in data set [1], in data set [2] and in data set [3] were 1200 nM, 5 nM and 3500 nM, respectively.
On to `Clc1cc(/C=C/c2ccc(N3CCN(C4=NCCO4)CC3)cc2)cc(Cn2ccnc2)c1`, for which the IC50 in data set [1] amounted to 3500 nM; in data set [2], 100 nM; in data set [3], 130 nM.
On to `CC(=O)N1CCN(c2ccc(/C=C/c3cc(O)cc(Cn4ccnc4)c3)cc2)CC1`, for which the 50% inhibitory concentration (IC50) in data set [1] was 2400 nM; in data set [2], 88 nM; in data set [3], 51 nM.
On the same counts, the results for `O=C(c1cccnc1)N1CCN(c2ccc(/C=C/c3cc(Cl)cc(Cn4ccnc4)c3)cc2)CC1` are at least 10000 nM, 26 nM and 4.9 nM.
The corresponding values for `N=C(N)N1CCN(c2ccc(/C=C/c3cc(Cl)cc(Cn4ccnc4)c3)cc2)CC1` are at least 10000 nM, 2500 nM and 1300 nM.
The corresponding values for `Oc1cc(/C=C/c2ccc(Br)cc2)cc(-n2ccnc2)c1` are at least 10000 nM, 1200 nM and 1400 nM.
Turning to `Fc1cc(/C=C/c2ccc(N3CCN(C4=NCCO4)CC3)cc2)cc(Cn2ccnc2)c1`, the results for the IC50 in data set [1], in data set [2] and in data set [3] were at least 10000 nM, 117 nM and 130 nM, respectively.
The corresponding values for `CC(=O)N1CCN(c2ccc(/C=C/c3cc(O)cc(-n4ccnc4)c3)cc2)CC1` are 1950 nM, 220 nM and 4800 nM.
As for `O=S(=O)(C1CC1)N1CCN(c2ccc(/C=C/c3cc(Cl)cc(Cn4ccnc4)c3)cc2)CC1`, the concentration for half-maximal inhibition (IC50) in data set [1] came out at 340 nM; in data set [3] it was 22 nM.
For `CS(=O)(=O)N1CCN(c2ccc(/C=C/c3cc(F)cc(-c4ccncc4)c3)cc2)CC1`, the IC50 in data set [1] is 740 nM; in data set [2] it was 5 nM; in data set [3], 200 nM.
On to `CC(=O)N1CCN(c2ccc(/C=C/c3cc(F)cc(-c4ccncc4)c3)cc2)CC1`, for which the IC50 in data set [1] is 430 nM; in data set [2] it was 4.6 to 5 nM; in data set [3] it was 1200 nM. Besides, in data set [4], the F was 184.21%. Besides, the Tmax in data set [5] stood at 3 h.
For `CCS(=O)(=O)N1CCN(c2ccc(/C=C/c3cc(F)cc(-c4ccncc4)c3)cc2)CC1`, the bioavailability in data set [4] was 22.3%. For the same compound, the Tmax in data set [5] is 5.33 h.
`O=S(=O)(C1CC1)N1CCN(c2ccc(/C=C/c3cc(Cl)cc(-c4ccncc4)c3)cc2)CC1`: the IC50 in data set [1] stood at 416 nM; in data set [2], 5 nM; in data set [3], 51 nM.
For `CC(=O)N1CCN(c2ccc(/C=C/c3cc(Cl)cc(Cn4ccnc4)c3)cc2)CC1`, the half-maximal inhibitory concentration (IC50) in data set [2] is 42 nM.
Consider `CS(=O)(=O)N1CCN(c2ccc(/C=C/c3cc(F)cc(Cn4ccnc4)c3)cc2)CC1`, for which the IC50 is at least 10000 nM in data set [1], 58 nM in data set [2] and 49 nM in data set [3].
Turning to `O=S(=O)(c1c[nH]cn1)N1CCN(c2ccc(/C=C/c3cc(Cl)cc(Cn4ccnc4)c3)cc2)CC1`, the IC50 in data set [1] is at least 10000 nM; in data set [2] it was 6.2 nM; in data set [3] it was 7 nM.
The corresponding values for `CS(=O)(=O)N1CCN(c2ccc(/C=C/c3cc(Cl)cc(Cn4ccnc4)c3)cc2)CC1` are 2200 nM, 180 nM and 24 nM.
In the case of `O=S(=O)(N1CCN(c2ccc(/C=C/c3cc(F)cc(-c4ccncc4)c3)cc2)CC1)C(F)(F)F`, in data set [4], the bioavailability came out at 22.1%. In data set [5], the Tmax was 3.33 h.
For the compound `CC(C)S(=O)(=O)N1CCN(c2ccc(/C=C/c3cc(Cl)cc(-c4ccncc4)c3)cc2)CC1`, the values for the IC50 in data set [1], in data set [2] and in data set [3] were 565 nM, 5 nM and 58 nM, respectively.
The corresponding values for `N=C(N)N1CCN(c2ccc(/C=C/c3cc(F)cc(-c4ccncc4)c3)cc2)CC1` are at least 10000 nM, 18 nM and 3600 nM.
On to `CS(=O)(=O)N1CCN(c2ccc(/C=C/c3cc(Cl)cc(-c4ccncc4)c3)cc2)CC1`, for which the IC50 was 840 nM in data set [1], 5 nM in data set [2] and 450 nM in data set [3].
On the same counts, the results for `O=[N+]([O-])c1cccc(S(=O)(=O)N2CCN(c3ccc(/C=C/c4cc(Cl)cc(Cn5ccnc5)c4)cc3)CC2)c1` are 160 nM, 9 nM and 4 nM.
The corresponding values for `CC(C)S(=O)(=O)N1CCN(c2ccc(/C=C/c3cc(Cl)cc(Cn4ccnc4)c3)cc2)CC1` are 85 nM, 38 nM and 240 nM.
On the same counts, the results for `O=[N+]([O-])c1cc(S(=O)(=O)N2CCN(c3ccc(/C=C/c4cc(Cl)cc(Cn5ccnc5)c4)cc3)CC2)ccc1Cl` are at least 10000 nM, 106 nM and 57 nM.
In the case of `CCS(=O)(=O)N1CCN(c2ccc(/C=C/c3cc(Cl)cc(Cn4ccnc4)c3)cc2)CC1`, the IC50 is 540 nM in data set [1] and 24 nM in data set [2].
In the case of `CC(=O)N1CCN(c2ccc(CCc3cc(F)cc(-c4ccncc4)c3)cc2)CC1`, the IC50 in data set [1] is at least 10000 nM; in data set [2], 21 nM; in data set [3] it was 1.4 nM.
On the same counts, the results for `O=S(=O)(CCCCl)N1CCN(c2ccc(/C=C/c3cc(Cl)cc(Cn4ccnc4)c3)cc2)CC1` are 2870 nM, 31 nM and 13 nM.
On the same counts, the results for `Fc1cc(/C=C/c2ccc(N3CCN(C4=NCCO4)CC3)cc2)cc(-c2ccncc2)c1` are 1200 nM, 5 nM and 1800 nM.
`O=S(=O)(C1CC1)N1CCN(c2ccc(/C=C/c3cc(F)cc(-c4ccncc4)c3)cc2)CC1`: the Tmax in data set [5] is 8 h.
`Fc1cc(/C=C/c2ccc(N3CCN(C4=NCCCO4)CC3)cc2)cc(Cn2ccnc2)c1`: the IC50 was found to be 1000 nM in data set [1], 42 nM in data set [2] and 17 nM in data set [3].
The corresponding values for `N#CCS(=O)(=O)N1CCN(c2ccc(/C=C/c3cc(F)cc(Cn4ccnc4)c3)cc2)CC1` are at least 10000 nM, 86 nM and 73 nM.

Broadly, the IC50 is the concentration at which inhibition is half-maximal. Broadly, the Tmax is the time at which the peak concentration occurs. What is called bioavailability is the share of a dose that reaches the circulation, judged against a reference dose that is usually intravenous.

These data come from ChEMBL document CHEMBL4257083, “Novel cytochrome p450 inhibitors and their method of use” (2016).
